Measured values: ChEMBL document CHEMBL5390258, “Recent Progress and Prospects of Small Molecules for NLRP3 Inflammasome Inhibition” (J Med Chem, 2023)
One block for each compound: values may come before it.

Tests used:
[1] = target: T1, NACHT, LRR and PYD domains-containing protein 3 (Homo sapiens, UniProt Q96P20); experiment: Inhibition of NLRP3 in LPS induced human PBMC cells assessed as reduction in IL-1beta preincubated for 30 mins followed by ATP addition measured after 1 hrs HTRF assay; format: cell-based
[2] = target: T1, NACHT, LRR and PYD domains-containing protein 3; experiment: Inhibition of NLRP3 in human THP-1 cells assessed as reduction in IL-1beta production by AlphaLISA assay; format: cell-based
[3] = target: T1, NACHT, LRR and PYD domains-containing protein 3; experiment: Inhibition of NLRP3 in human THP-1 cells assessed as reduction in IL-1beta production; format: cell-based
[4] = target: T1, NACHT, LRR and PYD domains-containing protein 3; experiment: Inhibition of NLRP3 in human PBMC cells assessed as reduction in IL-1beta production preincubated for 30 mins followed by LPS addition measured after 6 hrs; format: cell-based
[5] = target: T1, NACHT, LRR and PYD domains-containing protein 3; experiment: Inhibition of NLRP3 in human THP-1 cells assessed as reduction in caspase 1 level; format: cell-based
[6] = target: T2, NACHT, LRR and PYD domains-containing protein 3 (Mus musculus, UniProt Q8R4B8); experiment: Inhibition of NLRP3 in mouse BMDM cells assessed as reduction in IL-1beta production measured after 3 hrs; format: cell-based
THP-1 [7] = experiment: Induction of pyroptosis in human THP-1 cells; format: functional, cell-based
[8] = target: T1, NACHT, LRR and PYD domains-containing protein 3; experiment: Inhibition of NLRP3 in LPS induced human THP-1 cells assessed as reduction in IL-1beta production preincubated for 3 hrs followed by nigericin addition measured after 1 hrs by resazurin staining based assay; format: cell-based
[9] = target: T1, NACHT, LRR and PYD domains-containing protein 3; experiment: Inhibition of NLRP3 in human THP-1 cells assessed as reduction in IL-1beta production measured after 3 hrs by AlphaLISA assay; format: cell-based
[10] = target: T1, NACHT, LRR and PYD domains-containing protein 3; experiment: Inhibition of NLRP3 in human THP-1 cells assessed as reduction in IL-1beta production measured after 3 hrs; format: cell-based
[11] = Inhibition of NLRP3 in LPS induced PBMC (unknown origin) assessed as reduction in IL-1beta production preincubated 0.5 hrs followed by nigericin addition measured after 1 hrs by ELISA assay; format: cell-based
[12] = target: T1, NACHT, LRR and PYD domains-containing protein 3; experiment: Inhibition of NLRP3 in human PBMC cells assessed as reduction in TNF alpha level preincubated for 30 mins followed by LPS addition measured after 6 hrs; format: cell-based
THP-1 [13] = experiment: Antiinflammatory activity against PMA-differentiated human THP-1 cells assessed as reduction of IL-1beta production measured after 2 hrs; format: functional, cell-based; settings: THP-1, 2 h
[14] = target: T2, NACHT, LRR and PYD domains-containing protein 3; experiment: Inhibition of NLRP3 in LPS induced mouse BV-2 cells assessed as reduction in IL-1beta production pretreated for 30 mins followed by nigericin addition measured after 2 hrs by ELISA assay; format: cell-based
[15] = Oral bioavailability in Sprague-Dawley rat measured upto 24 hrs by LC-MS/MS analysis; format: ADME, organism-based; settings: in vivo
[16] = target: T1, NACHT, LRR and PYD domains-containing protein 3; experiment: Inhibition of NLRP3 in human THP-1 cells assessed as reduction in IL-1beta production pre incubated for 3 hrs followed by nigericin addition measured after 1 hrs by resazurin staining based assay; format: cell-based
THP-1 [17] = experiment: Induction of pyroptosis in human THP-1 cells by AlphaLisa assay; format: functional, cell-based
[18] = target: T1, NACHT, LRR and PYD domains-containing protein 3; experiment: Inhibition of NLRP3 in human THP-1 cells assessed as reduction in IL-1beta production measured after 1 hrs by ELISA assay; format: cell-based
[19] = target: T1, NACHT, LRR and PYD domains-containing protein 3; experiment: Inhibition of NLRP3 in human PBMC cells assessed as reduction in Il-1beta production preincubated for 0.5 hrs followed by LPS treatment for […] and further addition of ATP measured after 45 mins; format: cell-based
[20] = target: T1, NACHT, LRR and PYD domains-containing protein 3; experiment: Inhibition of NLRP3 in human PBMC cells assessed as reduction in TNFalpha level preincubated for 0.5 hrs followed by LPS treatment for […] and further addition of ATP measured after 45 mins; format: cell-based
[21] = target: T1, NACHT, LRR and PYD domains-containing protein 3; experiment: Inhibition of NLRP3 (unknown origin) assessed as reduction of IL-1beta production
[22] = Lipophilicity, logP of the compound; format: physicochemical; settings: octanol/water
[23] = target: T1, NACHT, LRR and PYD domains-containing protein 3; experiment: Inhibition of NLRP3 in human PBMC cells assessed as reduction in Il-1beta production at 0.5 uM relative to control; format: cell-based
[24] = target: T2, NACHT, LRR and PYD domains-containing protein 3; experiment: Inhibition of NLRP3 in mouse BMDM assessed as reduction in IL-1beta production preincubated for 3 hrs followed by ATP measured after 45 mins by ELISA assay; format: cell-based
[25] = target: T2, NACHT, LRR and PYD domains-containing protein 3; experiment: Inhibition of NLRP3 in LPS induced mouse BMDM cells assessed as reduction in IL-1beta production measured after 30 mins by ELISA assay; format: cell-based

T1 sequence (Q96P20 whole entry, the tested form may be a part): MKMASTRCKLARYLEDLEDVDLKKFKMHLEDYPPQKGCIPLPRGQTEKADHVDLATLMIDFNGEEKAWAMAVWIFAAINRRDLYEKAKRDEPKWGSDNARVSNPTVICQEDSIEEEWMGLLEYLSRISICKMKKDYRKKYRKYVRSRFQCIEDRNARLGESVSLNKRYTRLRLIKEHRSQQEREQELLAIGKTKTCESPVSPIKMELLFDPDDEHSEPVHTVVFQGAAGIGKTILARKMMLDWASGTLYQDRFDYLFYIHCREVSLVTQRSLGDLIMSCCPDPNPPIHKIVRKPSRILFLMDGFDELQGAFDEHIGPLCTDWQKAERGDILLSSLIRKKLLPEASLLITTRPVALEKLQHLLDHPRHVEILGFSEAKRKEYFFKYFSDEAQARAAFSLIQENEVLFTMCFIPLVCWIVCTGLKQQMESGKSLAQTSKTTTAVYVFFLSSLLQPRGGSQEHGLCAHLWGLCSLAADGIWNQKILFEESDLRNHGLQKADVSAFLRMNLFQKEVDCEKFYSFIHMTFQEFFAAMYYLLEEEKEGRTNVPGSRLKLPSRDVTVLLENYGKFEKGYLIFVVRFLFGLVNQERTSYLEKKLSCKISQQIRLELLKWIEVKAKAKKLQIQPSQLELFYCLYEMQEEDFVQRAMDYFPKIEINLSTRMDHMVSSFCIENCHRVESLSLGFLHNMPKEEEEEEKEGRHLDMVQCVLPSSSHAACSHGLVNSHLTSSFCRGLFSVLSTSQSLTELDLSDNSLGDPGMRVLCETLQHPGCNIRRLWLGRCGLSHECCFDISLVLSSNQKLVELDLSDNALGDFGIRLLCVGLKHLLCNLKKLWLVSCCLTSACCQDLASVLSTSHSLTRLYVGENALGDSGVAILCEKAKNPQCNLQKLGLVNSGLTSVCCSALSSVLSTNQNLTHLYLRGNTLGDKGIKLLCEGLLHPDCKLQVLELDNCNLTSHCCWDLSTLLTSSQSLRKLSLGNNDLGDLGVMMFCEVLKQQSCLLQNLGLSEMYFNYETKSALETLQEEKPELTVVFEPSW
T2 sequence (Q8R4B8 whole entry, the tested form may be a part): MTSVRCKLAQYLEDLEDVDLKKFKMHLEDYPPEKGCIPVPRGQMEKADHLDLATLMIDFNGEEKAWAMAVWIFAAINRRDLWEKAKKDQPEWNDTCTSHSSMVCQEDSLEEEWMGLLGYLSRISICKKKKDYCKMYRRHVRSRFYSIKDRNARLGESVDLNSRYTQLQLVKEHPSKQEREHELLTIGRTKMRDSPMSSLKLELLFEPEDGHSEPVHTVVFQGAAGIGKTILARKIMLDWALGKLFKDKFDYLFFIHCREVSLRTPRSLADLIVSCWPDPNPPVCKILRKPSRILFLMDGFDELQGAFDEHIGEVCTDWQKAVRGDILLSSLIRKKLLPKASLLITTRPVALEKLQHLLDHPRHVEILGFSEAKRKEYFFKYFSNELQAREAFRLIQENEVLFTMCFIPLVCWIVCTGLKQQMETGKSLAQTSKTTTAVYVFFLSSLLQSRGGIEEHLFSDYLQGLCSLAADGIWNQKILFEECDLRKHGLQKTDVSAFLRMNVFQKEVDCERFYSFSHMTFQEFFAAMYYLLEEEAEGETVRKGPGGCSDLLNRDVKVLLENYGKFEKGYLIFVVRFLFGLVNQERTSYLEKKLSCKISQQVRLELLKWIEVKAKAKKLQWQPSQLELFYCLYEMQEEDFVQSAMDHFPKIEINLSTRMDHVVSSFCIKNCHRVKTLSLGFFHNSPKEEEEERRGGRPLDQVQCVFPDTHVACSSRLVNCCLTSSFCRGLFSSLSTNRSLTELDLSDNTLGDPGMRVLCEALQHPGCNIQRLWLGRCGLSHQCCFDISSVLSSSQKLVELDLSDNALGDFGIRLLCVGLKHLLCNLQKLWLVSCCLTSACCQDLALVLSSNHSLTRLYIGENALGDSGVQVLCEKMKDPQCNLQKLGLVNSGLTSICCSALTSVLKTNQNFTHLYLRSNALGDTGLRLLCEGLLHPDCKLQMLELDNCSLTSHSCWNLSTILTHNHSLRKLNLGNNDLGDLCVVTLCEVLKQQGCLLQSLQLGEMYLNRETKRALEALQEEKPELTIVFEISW

SMILES: CC(C)OC(=O)c1nc(Nc2c3c(cc4c2CCC4)CCC3)cs1
IC50 [1]: < 1000 nM

SMILES: Cc1cc(Br)cc(C)c1-n1cc2c(=O)[nH]c(N3C=COCC3)nc2n1
IC50 [3]: 3 nM

SMILES: COC(=O)C12CC(NC(=O)Cn3nc(C(C)C)c(OCC(C)C)cc3=O)(C1)C2
EC50 [4]: 10 nM

SMILES: C=CCN1C(=O)/C(=C2/C(=O)Nc3ccccc32)SC1=S
IC50 [5]: 500 nM

SMILES: CC1(O)CCCc2oc(S(=O)(=O)NC(=O)Nc3c4c(c(Br)c5c3CCC5)CCC4)cc21 (configuration not stated)
IC50 [6]: < 100 nM

SMILES: CC(C)c1cc(F)cc2c1CC(=O)NS(=O)(=O)c1ccn(n1)C(C)(C)COc1cc-2ccn1
IC50 [9]: ≤ 100 nM

SMILES: CCOC(=O)C(Cn1cc(F)cn1)OC(=O)Nc1c2c(cc3c1CCC3)CCC2 (configuration not stated)
IC50 [11]: < 10 nM

SMILES: O=C(Nc1c2c(cc3c1CC3)CCC2)NS(=O)(=O)c1cnn2c1OCCC2
IC50 (THP-1 [13]): 200 nM

SMILES: CC(C)(O)c1coc(S(=O)(=O)NC(=O)Nc2c3c(cc4c2CCC4)CCC3)c1
IC50 [14]: 3930 nM

SMILES: CCN1CCC(S(=O)(=O)NC(=O)Nc2c3c(cc4c2CCC4)CCC3)CC1 [SELNOFLAST]
bioavailability [15]: 76.7%
IC50 [16]: ≤ 1000 nM

SMILES: CC(C)c1nn(CC(=O)Nc2ccncn2)c(=O)c2cccn12
IC50 [19]: > 10000 nM
IC50 [20]: > 10000 nM

SMILES: CN(C)Cc1cc(S(=O)(=O)NC(=O)Nc2c3c(cc4c2CCC4)CCC3)nn1C1CC1
IC50 [16]: ≤ 40 nM

SMILES: COc1ccc(Cl)cc1C(=O)NCCc1ccc(S(=O)(=O)NO)cc1
IC50 [21]: 8450 nM
logP [22]: 0.19

SMILES: C=C1C(=O)[C@@]23C(CC[C@@H]1[C@H]2OC(=O)/C=C/c1ccc(N2CCOCC2)cc1)[C@@]12CO[C@]3(O)[C@@H](O)[C@@H]1C(C)(C)CC[C@@H]2O (some centres not stated)
inhibition [23]: 2.94%

SMILES: C[C@@]1(O)CCCc2oc(S(=O)(=O)NC(=O)Nc3c4c(cc5c3CCC5)CCC4)cc21
IC50 [24]: < 100 nM

SMILES: CC(C)OC(=O)C(Cc1ncccn1)OC(=O)N[C@@H](C)c1ccc(C(F)(F)F)cc1 (some centres not stated)
IC50 [11]: < 1000 nM

SMILES: NS(=O)(=O)c1cccc(/C=C2\SC(=S)N(CC3CCCCC3)C2=O)c1
IC50 [25]: 900 nM

SMILES: CC(C)c1cc(F)cc(C(C)C)c1NC(=O)N=[S+](N)([O-])c1ccccc1-c1ccccc1 (configuration not stated)
IC50 [3]: > 30000 nM

SMILES: CS(=O)(=O)NC(=O)Nc1c(-c2ccnc(OC3CCN(Cc4ccccc4)CC3)c2)ccc2c1CCC2
IC50 [10]: ≤ 250 nM

Results, then the compound that gave them:

IC50 [2]: < 100 nM
SMILES: O=C1Nc2c(ccc3c2CCC3)-c2ccnc(c2)OCCn2cc(F)c(n2)S(=O)(=O)N1

EC50 (THP-1 [7]): < 20 nM
SMILES: CN1CCC[C@@H](Nc2nnc(-c3ccc(C(F)(F)F)cc3O)c3ncn(C)c23)C1

IC50 [8]: ≤ 100 nM
SMILES: O=S1(=O)c2nnc([nH]2)Nc2c(ccc3c2CCC3)-c2ccnc(c2)OCCCN2CCC3(CC1C3)C2

IC50 [10]: < 100 nM
SMILES: CCc1oc(C(C)C)cc1NC(=O)NS(=O)(=O)C(c1cnn(C)c1)C1CCCN(C)C1 (configuration not stated)

IC50 [3]: ≤ 250 nM
SMILES: Cc1cc2c(c(NC(=O)NS(=O)(=O)c3cc(C(C)(C)O)co3)c1-c1ccnc(OC3CCN(C)CC3)c1)CCC2

EC50 [4]: 90 nM
SMILES: CC(C)c1nn(CC(=O)Nc2ccc3nncn3n2)c(=O)cc1N1CC2CC2C1 (configuration not stated)

IC50 [4]: 24 nM
IC50 [12]: 7040 nM
SMILES: CCNc1cc2c(=O)n(CC(=O)Nc3ccc4nncn4c3)nc(C(C)C)n2n1

IC50 [4]: < 25 nM
IC50 [12]: > 10000 nM
SMILES: CC(C)c1nn(CC(=O)N[C@H]2C[C@](C)(O)C2)c(=O)c2ccc(Br)cc12

IC50 (THP-1 [17]): 27.4 nM
SMILES: Cc1cc(Cl)cc(O)c1-c1ccc2oc(N[C@@H]3CCCN4CCC[C@@H]34)nc2n1

IC50 [12]: 4990 nM
SMILES: CC(C)c1nn(CC(=O)Nc2ccc3nncn3c2)c(=O)c2sc(C3CC3)nc12

IC50 [18]: 35300 nM
SMILES: CCc1c(-c2cccc(F)c2)c(C(C)C)nn(CC(=O)Nc2ncncc2F)c1=O

IC50 [16]: ≤ 250 nM
SMILES: CN1CCC(Oc2cc(-c3ccc4c(c3NC(=O)NS(=O)(=O)C3CC3)CCC4)ccn2)CC1

EC50 (THP-1 [7]): > 1000 nM
SMILES: CN1CCC[C@@H](Nc2nnc(-c3sccc3O)c3c2ncn3C)C1
